Organism: Mus musculus
Assay: Inhibitory activity against production of nitric oxide (NO) induced by interferon-gamma (IFN-gamma) in mouse macrophages above 1 uM concentration; Toxic; call rule not given here
Format: functional, organism-based

| SMILES | IC50 |
| --- | --- |
| COC(=O)C1=C[C@]2(C)C3=CC(=O)C4C5CC(C)(C)CC[C@]5(C(=O)OC)CC[C@@]4(C)[C@]3(C)CC[C@H]2C(C)(C)C1=O (some centres undefined) | Toxic |
| CC1(C)CC[C@]2(C(=O)O)CC[C@]3(C)C(=CC[C@@H]4[C@@]5(C)C=C(C=O)C(=O)C(C)(C)[C@@H]5CC[C@]43C)C2C1 (some centres undefined) | Toxic |
| COC(=O)[C@]12CCC(C)(C)CC1C1=CC[C@@H]3[C@@]4(C)C=C(C=O)C(=O)C(C)(C)[C@@H]4CC[C@@]3(C)[C@]1(C)CC2 (some centres undefined) | Toxic |

Organism: Mus musculus
Assay: Inhibitory activity against production of nitric oxide induced by interferon-gamma in mouse macrophages
Format: functional, organism-based

| SMILES | IC50 |
| --- | --- |
| CC1(C)CC[C@]2(C(=O)O)CC[C@]3(C)C(=CC[C@@H]4[C@@]5(C)C=C(C(=O)O)C(=O)C(C)(C)[C@@H]5CC[C@]43C)C2C1 (some centres undefined) | 70 nM |
| CC1(C)CC[C@]2(C(=O)O)CC[C@]3(C)C(=C2C1)CC(=O)[C@@H]1[C@@]2(C)C=C(C#N)C(=O)C(C)(C)[C@@H]2CC[C@]13C | 70 nM |
| COC(=O)[C@]12CCC(C)(C)CC1C1=CC[C@@H]3[C@@]4(C)C=C(C#N)C(=O)C(C)(C)[C@@H]4CC[C@@]3(C)[C@]1(C)CC2 (some centres undefined) | 700 nM |
| COC(=O)[C@]12CCC(C)(C)CC1C1=CC[C@@H]3[C@@]4(C)C=C(C(=O)O)C(=O)C(C)(C)[C@@H]4CC[C@@]3(C)[C@]1(C)CC2 (some centres undefined) | 800 nM |
| COC(=O)C1=C[C@]2(C)[C@H]3CC=C4C5CC(C)(C)CC[C@]5(C(=O)OC)CC[C@@]4(C)[C@]3(C)CC[C@H]2C(C)(C)C1=O (some centres undefined) | 900 nM |
| COC(=O)[C@]12CCC(C)(C)C[C@H]1[C@H]1C(=O)C=C3[C@@]4(C)C=C(C#N)C(=O)C(C)(C)[C@@H]4CC[C@@]3(C)[C@]1(C)CC2 [BARDOXOLONE METHYL] | 0.1 nM |
| C[C@@H]1C[C@H]2[C@@H]3CCC4=CC(=O)C=C[C@]4(C)[C@@]3(F)[C@@H](O)C[C@]2(C)[C@@]1(O)C(=O)CO [DEXAMETHASONE] | 0.1 nM |
| CC1(C)CC[C@]2(C(=O)O)CC[C@]3(C)C(C(=O)C=C4[C@@]5(C)C=C(C(=O)O)C(=O)C(C)(C)[C@@H]5CC[C@]43C)C2C1 (some centres undefined) | 200 nM |
| COC(=O)[C@]12CCC(C)(C)CC1C1=CC[C@@H]3[C@@]4(C)C=C(C(N)=O)C(=O)C(C)(C)[C@@H]4CC[C@@]3(C)[C@]1(C)CC2 (some centres undefined) | 14000 nM |
| CC1(C)CC[C@]2(C(=O)O)CC[C@]3(C)C(=CC(=O)[C@@H]4[C@@]5(C)C=C(C#N)C(=O)C(C)(C)[C@@H]5CC[C@]43C)C2C1 (some centres undefined) | 40 nM |
| COC(=O)C1=C[C@]2(C)[C@H]3CC=C4C5CC(C)(C)CC[C@]5(C(=O)O)CC[C@@]4(C)[C@]3(C)CC[C@H]2C(C)(C)C1=O (some centres undefined) | 2200 nM |
| CC1(C)CC[C@]2(C(=O)O)CC[C@]3(C)C(=CC[C@@H]4[C@@]5(C)CC[C@H](O)C(C)(C)[C@@H]5CC[C@]43C)[C@@H]2C1 [OLEANOLIC_ACID] | > 40000 nM |
| COC(=O)[C@]12CCC(C)(C)CC1C1=CC[C@@H]3[C@@]4(C)C=C(Cl)C(=O)C(C)(C)[C@@H]4CC[C@@]3(C)[C@]1(C)CC2 (some centres undefined) | > 40000 nM |
| CC1(C)CC[C@]2(C(=O)O)CC[C@]3(C)C(=CC[C@@H]4[C@@]5(C)C=C(Cl)C(=O)C(C)(C)[C@@H]5CC[C@]43C)C2C1 (some centres undefined) | > 40000 nM |
| CC1(C)CC[C@]2(C(=O)O)CC[C@]3(C)C(=CC[C@@H]4[C@@]5(C)C=CC(=O)C(C)(C)[C@@H]5CC[C@]43C)C2C1 (some centres undefined) | 5600 nM |
| COC(=O)[C@]12CCC(C)(C)CC1C1=CC(=O)[C@@H]3[C@@]4(C)C=C(C#N)C(=O)C(C)(C)[C@@H]4CC[C@@]3(C)[C@]1(C)CC2 (some centres undefined) | 20 nM |
| COC(=O)C1=C[C@]2(C)C3=CC(=O)C4C5CC(C)(C)CC[C@]5(C(=O)O)CC[C@@]4(C)[C@]3(C)CC[C@H]2C(C)(C)C1=O (some centres undefined) | 100 nM |
| COC(=O)[C@]12CCC(C)(C)CC1C1=CC[C@@H]3[C@@]4(C)C=C(Br)C(=O)C(C)(C)[C@@H]4CC[C@@]3(C)[C@]1(C)CC2 (some centres undefined) | > 40000 nM |
| CC1(C)CC[C@]2(C(=O)O)CC[C@]3(C)[C@H](C(=O)C=C4[C@@]5(C)C=CC(=O)C(C)(C)[C@@H]5CC[C@]43C)[C@@H]2C1 | 200 nM |
| CC1(C)CC[C@]2(C(=O)O)CC[C@]3(C)C(=CC[C@@H]4[C@@]5(C)C=C(Br)C(=O)C(C)(C)[C@@H]5CC[C@]43C)C2C1 (some centres undefined) | 7300 nM |
| CC1(C)CC[C@]2(C(=O)O)CC[C@]3(C)[C@H](C(=O)C=C4[C@@]5(C)C=C(C#N)C(=O)C(C)(C)[C@@H]5CC[C@]43C)[C@@H]2C1 [BARDOXOLONE] | 0.2 nM |
| COC(=O)[C@]12CCC(C)(C)CC1C1C(=O)C=C3[C@@]4(C)C=C(C(=O)O)C(=O)C(C)(C)[C@@H]4CC[C@@]3(C)[C@]1(C)CC2 (some centres undefined) | 0.8 nM |
| C[C@]12CCC(=O)C=C1CCC1[C@@H]2[C@@H](O)C[C@@]2(C)[C@H]1CC[C@]2(O)C(=O)CO (single isomer, unassigned) [HYDROCORTISONE] | 10 nM |

Organism: Mus musculus
Assay: Inhibitory activity against production of nitric oxide (NO) induced by interferon-gamma (IFN-gamma) in mouse macrophages below 1 uM concentration; Inactive
Format: functional, organism-based

| SMILES | IC50 |
| --- | --- |
| COC(=O)C1=C[C@]2(C)C3=CC(=O)C4C5CC(C)(C)CC[C@]5(C(=O)OC)CC[C@@]4(C)[C@]3(C)CC[C@H]2C(C)(C)C1=O (some centres undefined) | Not Active |
| CC1(C)CC[C@]2(C(=O)O)CC[C@]3(C)C(=CC[C@@H]4[C@@]5(C)C=C(C=O)C(=O)C(C)(C)[C@@H]5CC[C@]43C)C2C1 (some centres undefined) | Not Active |
| COC(=O)[C@]12CCC(C)(C)CC1C1=CC[C@@H]3[C@@]4(C)C=C(C=O)C(=O)C(C)(C)[C@@H]4CC[C@@]3(C)[C@]1(C)CC2 (some centres undefined) | Not Active |
